Reference: ChEMBL document CHEMBL1147114, “Fluoroquinolone resistance in Haemophilus influenzae is associated with hypermutability” (2007)
Values after ≈ are worked out from the molar mass of the structure shown.

Columns and labels:
Format in all cases: functional
Haemophilus influenzae [1] = assay: Antimicrobial susceptibility against Haemophilus influenzae A2 with GyrA Glu83Cys, ParC Ser84Arg and AcrR 97stop codon mutation
Haemophilus influenzae [2] = assay: Antimicrobial susceptibility against Haemophilus influenzae D2 isolate with GyrA Ser84Tyr, ParC Glu88Lys and AcrR Leu31His, Ile121Val and Gln134Lys mutation
Haemophilus influenzae [3] = assay: Antimicrobial susceptibility against Haemophilus influenzae B isolate with AcrR Leu31His mutation
Haemophilus influenzae [4] = assay: Antimicrobial susceptibility against Haemophilus influenzae C2 isolate with GyrA Asp88Asn, AcrR Leu31His and Arg34Glu mutation
Haemophilus influenzae [5] = assay: Antimicrobial susceptibility against Haemophilus influenzae A4 isolate with GyrA Glu83Cys, ParC Ser84Arg and AcrR 97stop codon mutation
Haemophilus influenzae [6] = assay: Antimicrobial susceptibility against Haemophilus influenzae C3 isolate with GyrA Asp88Asn, ParC Ser84Ile, AcrR Leu31His and Arg34Glu mutation
Haemophilus influenzae [7] = assay: Antimicrobial susceptibility against Haemophilus influenzae D4 isolate with GyrA Ser84Tyr, ParC Glu88Lys and AcrR Leu31His, Ile121Val and Gln134Lys mutation
Haemophilus influenzae [8] = assay: Antimicrobial susceptibility against Haemophilus influenzae C1 isolate with GyrA Asp88Asn, AcrR Leu31His and Arg34Glu mutation
Haemophilus influenzae [9] = assay: Antimicrobial susceptibility against Haemophilus influenzae D isolate with AcrR Leu31His, Ile121Val and Gln134Lys mutation
Haemophilus influenzae [10] = assay: Antimicrobial susceptibility against Haemophilus influenzae B2 isolate with GyrA Asp88Tyr and AcrR Leu31His mutation
Haemophilus influenzae [11] = assay: Antimicrobial susceptibility against Haemophilus influenzae D1 isolate with GyrA Ser84Tyr, ParC Glu88Lys and AcrR Leu31His, Ile121Val and Gln134Lys mutation
Haemophilus influenzae [12] = assay: Antimicrobial susceptibility against Haemophilus influenzae C isolate with AcrR Leu31His and Arg34Glu mutation
Haemophilus influenzae [13] = assay: Antimicrobial susceptibility against Haemophilus influenzae A3 isolate with GyrA Glu83Cys, ParC Ser84Arg and AcrR 97stop codon mutation
Haemophilus influenzae [14] = assay: Antimicrobial susceptibility against Haemophilus influenzae B1 isolate with GyrA Asp88Tyr and AcrR Leu31His mutation
Haemophilus influenzae [15] = assay: Antimicrobial susceptibility against Haemophilus influenzae A1 isolate with GyrA Glu83Cys, ParC Ser84Arg and AcrR 97stop codon mutation
Haemophilus influenzae [16] = assay: Antimicrobial susceptibility against Haemophilus influenzae A isolate with GyrA Glu83Cys and AcrR 97stop codon mutation
Haemophilus influenzae [17] = assay: Antimicrobial susceptibility against Haemophilus influenzae D3 isolate with GyrA Ser84Tyr, ParC Glu88Lys and AcrR Leu31His, Ile121Val and Gln134Lys mutation

| SMILES | MIC (Haemophilus influenzae [1]) [µg/mL] | MIC (Haemophilus influenzae [2]) [µg/mL] | MIC (Haemophilus influenzae [3]) [µg/mL] | MIC (Haemophilus influenzae [4]) [µg/mL] | MIC (Haemophilus influenzae [5]) [µg/mL] | MIC (Haemophilus influenzae [6]) [µg/mL] | MIC (Haemophilus influenzae [7]) [µg/mL] | MIC (Haemophilus influenzae [8]) [µg/mL] | MIC (Haemophilus influenzae [9]) [µg/mL] | MIC (Haemophilus influenzae [10]) [µg/mL] | MIC (Haemophilus influenzae [11]) [µg/mL] | MIC (Haemophilus influenzae [12]) [µg/mL] | MIC (Haemophilus influenzae [13]) [µg/mL] | MIC (Haemophilus influenzae [14]) [µg/mL] | MIC (Haemophilus influenzae [15]) [µg/mL] | MIC (Haemophilus influenzae [16]) [µg/mL] | MIC (Haemophilus influenzae [17]) [µg/mL] |
| --- | --- | --- | --- | --- | --- | --- | --- | --- | --- | --- | --- | --- | --- | --- | --- | --- | --- |
| CCn1cc(C(=O)O)c(=O)c2ccc(C)nc21 [NALIDIXIC ACID] | 64 (≈ 276 µM) | 64 (≈ 276 µM) | 0.5 (≈ 2.15 µM) | 128 (≈ 551 µM) | 128 (≈ 551 µM) | 128 (≈ 551 µM) | 128 (≈ 551 µM) | 16 (≈ 68.9 µM) | 0.5 (≈ 2.15 µM) | 64 (≈ 276 µM) | 64 (≈ 276 µM) | 0.5 (≈ 2.15 µM) | 64 (≈ 276 µM) | 32 (≈ 138 µM) | 1 (≈ 4.31 µM) | 0.5 (≈ 2.15 µM) | 128 (≈ 551 µM) |
| COc1c(N2C[C@@H]3CCCN[C@@H]3C2)c(F)cc2c(=O)c(C(=O)O)cn(C3CC3)c12 [MOXIFLOXACIN] | 0.5 (≈ 1.25 µM) | 2 (≈ 4.98 µM) | 0.06 (≈ 0.149 µM) | 4 (≈ 9.96 µM) | 2 (≈ 4.98 µM) | 4 (≈ 9.96 µM) | 2 (≈ 4.98 µM) | 0.12 (≈ 0.299 µM) | 0.03 (≈ 0.0747 µM) | 0.25 (≈ 0.623 µM) | 0.5 (≈ 1.25 µM) | 0.03 (≈ 0.0747 µM) | 0.5 (≈ 1.25 µM) | 0.25 (≈ 0.623 µM) | 0.5 (≈ 1.25 µM) | 0.03 (≈ 0.0747 µM) | 2 (≈ 4.98 µM) |
| O=C(O)c1cn(C2CC2)c2cc(N3CCNCC3)c(F)cc2c1=O [CIPROFLOXACIN] | 0.25 (≈ 0.754 µM) | 4 (≈ 12.1 µM) | 0.03 (≈ 0.0905 µM) | 2 (≈ 6.04 µM) | 4 (≈ 12.1 µM) | 8 (≈ 24.1 µM) | 16 (≈ 48.3 µM) | 0.12 (≈ 0.362 µM) | 0.01 (≈ 0.0302 µM) | 0.25 (≈ 0.754 µM) | 1 (≈ 3.02 µM) | 0.01 (≈ 0.0302 µM) | 2 (≈ 6.04 µM) | 0.12 (≈ 0.362 µM) | 0.25 (≈ 0.754 µM) | 0.01 (≈ 0.0302 µM) | 8 (≈ 24.1 µM) |
| C[C@H]1COc2c(N3CCN(C)CC3)c(F)cc3c(=O)c(C(=O)O)cn1c23.C[C@H]1COc2c(N3CCN(C)CC3)c(F)cc3c(=O)c(C(=O)O)cn1c23.O [LEVOFLOXACIN] | 0.5 | 2 | 0.03 | 2 | 4 | 8 | 4 | 0.12 | 0.03 | 0.25 | 0.5 | 0.03 | 0.5 | 0.25 | 0.25 | 0.03 | 4 |
